Key:
[1] = tested on: Phaedon cochleariae; experiment: Phaedon test (PHAECO spray treatment); settings: 500 g/ha, after 7 days
[2] = tested on: Spodoptera frugiperda; experiment: Spodoptera frugiperda test (SPODFR spray treatment); type: in vivo; settings: 500 g/ha, after 7 days
Source text: (§1) Solvents: 78.0 parts by weight of acetone

[3] = tested on: Myzus persicae; experiment: Myzus test (MYZUPE spray treatment); type: in vivo; settings: 500 g/ha, after 6 days
[4] = Octanol/water distribution coefficient (log P/D), isocratic HPLC method; type: physicochemical; settings: pH 7.4; mean (range, n); read-out: logP/D pH 7.4
Source text: The distribution coefficient octanol/water P or D is a key parameter for estimating membrane penetration and permeability. It is defined as the ratio of the equilibrium concentrations of a substance in the two-phase system octanol/water.
[formula] P=partition D=distribution c(octanol)=concentration of the substance in the octanol phase c(water)=concentration of the substance in the aqueous phase
It is usually stated in form of the decadic logarithm (log P or log D).
log P describes the distribution behavior of a substance exclusively present in its neutral form. logD describes the distribution behavior of a substance at a certain pH; depending on the ionisation constant pKa of the substance, some of the substance may be present in ionic form, and some in neutral form.
The log P/D of the active compounds was determined using an isocratic HPLC method (HPLC=high performance liquid chromatography) (literature: OECD Guideline for Testing of Chemicals No. 117). The method is based on the correlation of the HPLC retention time of the test substance to that of reference substances with known distribution coefficients.
The test substance was employed as a 10 mM solution in DMSO (DMSO=dimethyl sulfoxide). 10 μl of this solution were made up to 100 μl with a methanol/water mixture in a ratio of 7+3.
The nine reference substances were dissolved individually in methanol. 100 μl each of the stock solutions were added to an HPLC vial and mixed with 300 μl of water.
A formamide solution was used to determine the hold-up time. To this end, 7 mg of formamide were dissolved in 10 ml of methanol. 100 μl of this stock solution were mixed with 500 μl of methanol and 200 μl of water.
All solutions were chromatographed using a flow rate of 1.00 ml/min.
Injection Protocol: formamide, references, test substance 1, test substance 2, . . . , formamide, references.
Evaluation of the retention times was carried out in a diode array detector (DAD) at 200-400 nm. Via the molecular mass, the identity of the test substance was checked using the downstream mass spectrometer.
The HPLC run was evaluated using the Waters software Masslynx 4.1.
The log P/D values were calculated using the software “POW Determination” (proprietary development).

[5] = tested on: Tetranychus urticae; experiment: Tetranychus test, OP-resistant (TETRUR spray treatment); type: in vivo; settings: after 6 days
Method: as §1
After 6 days, the effect in % is determined.
Tetranychus Test, OP-Resistant (TETRUR Spray Treatment)

[6] = tested on: mouse plasma protein; experiment: Plasma protein binding by equilibrium dialysis; type: in vitro ADME
Method: (§2) The binding of test substances to plasma proteins is determined by equilibrium dialysis by means of the Ht-dialysis apparatus (96-well) made of Teflon and a semipermeable membrane (regenerated cellulose, MWCO 12-14K). This separates 150 μl each of a plasma side and a buffer side (50 mM phosphate buffer). The test substance is added in 2 concentrations (usually 3 and 0.3 μM) to the plasma side and binds to plasma proteins. The unbound fraction of the test substance passes through the membrane and is distributed on either side until equilibrium is established (after approx. 6-8 h at 37° C.). The substance concentration on the buffer side and the plasma side is determined by LC-MS analysis. For this, both sides are brought by dilution with buffer or plasma to the same matrix (10% plasma) and then precipitated with methanol. The free (unbound) fraction (fu) is calculated from the quotient of the buffer and plasma concentration. Stability tests and recovery tests are run concurrently as controls. In addition, the substance in buffer is dialysed against buffer, to check the nonspecific binding to apparatus and membrane and establishment of equilibrium. Because during incubation the osmotic pressure of the plasma proteins leads to dilution of the plasma (volume shift), this possible error is determined by weighing blank plasma samples and is included in the calculation of fu. Establishment of equilibrium and plasma stability should have a value not lower than 80% and the recovery should be at least 30%. A free fraction of <1% is regarded as high, between 1 and 10% as moderate and >10% as low plasma protein binding.

[7] = tested on: human plasma protein; experiment: Plasma protein binding by equilibrium dialysis; type: in vitro ADME
Method: as §2

[8] = tested on: Meloidogyne incognita; experiment: Meloidogyne incognita test (MELGIN); type: in vivo; settings: 20 ppm, after 14 days
Method: Solvent: 125 parts by weight of acetone
Containers are filled with sand, solution of active compound, Meloidogyne incognita egg/larvae suspension and lettuce seeds. The lettuce seeds germinate and the plants develop. On the roots, galls are formed. After 14 days, the nematicidal effect in % is determined by the formation of galls. 100% means that no galls have been found; 0% means that the number of galls on the treated plants corresponds to the untreated control.

[9] = tested on: Boophilus microplus; experiment: Boophilus microplus test (BOOPMI injection); type: in vivo; settings: 20 μg/animal, after 7 days
Method: (§3) Solvent: dimethyl sulfoxide
To prepare an appropriate active compound formulation, 10 mg of active compound are mixed with 0.5 ml of solvent and the concentrate is diluted with solvent to the desired concentration. The solution of active compound is injected into the abdomen (Boophilus microplus), and the animals are transferred into dishes and kept in a climatized room. The activity is assessed by […] of fertile eggs.
100% means that none of the ticks has laid any fertile eggs.

[10] = tested on: Lucilia cuprina; experiment: Lucilia cuprina test (LUCICU); type: in vivo; settings: 100 ppm, after 2 days
Method: as §3
To prepare an appropriate active compound formulation, 10 mg of active compound are mixed with 0.5 ml of dimethyl sulfoxide and the concentrate is diluted with water to the desired concentration. Vessels containing horse meat treated with the active compound preparation of the desired concentration are populated with about 20 Lucilia cuprina larvae.
After 2 days, the kill in % is determined.

[11] = tested on: plasma proteins of rat; experiment: Plasma protein binding by equilibrium dialysis; type: in vitro ADME
Method: as §2

[12] = tested on: human ACC1; type: biochemical; settings: pairwise, same substance dilution series

SMILES | effect in % (beetle larvae killed) [1] | effect in % (caterpillars killed) [2] | effect in % (aphids killed) [3] | chromatographic logD [4] | effect in % (spider mites killed) ([5]; 100 g/ha) | other results
Cc1ccc(-c2ccc(Cl)cc2)cc1C1=C(O)C2(CCC(F)(F)CC2)OC1=O [Example I-2-a-3] | 100% | 100% | 90% | – | – | –
Cc1ccc(-c2ccc(Cl)cc2)cc1C1=C(O)C2(CCC(F)(F)CC2)NC1=O [Example 1-2, 3-(4′-Chloro-4-methylbiphenyl-3-yl)-8,8-difluoro-4-hydroxy-1-azaspiro[4.5]dec-3-en-2-one] | 100% | 100% | 100% | 1.73 | 100% | fu [%] (mouse) [6]: 3.49%; fu [%] (human) [7]: 0.42%
Cc1cc(Cl)cc(C)c1C1=C(O)C2(CCC(F)(F)CC2)NC1=O [Example I-1-a-7] | 100% | – | 100% | – | 100% | –
Cc1ccc(-c2ccc(F)cc2)c(C)c1C1=C(O)C2(CCC(F)(F)CC2)NC1=O [Example I-1-a-2] | 100% | 100% | 100% | – | – | nematicidal effect in % (formation of galls) [8]: 100%; effect in % (spider mites killed) ([5]; 500 g/ha): 100%; effect in % (fertile eggs) [9]: 80%; kill in % [10]: 100%
Cc1ccc(-c2ccc(F)cc2)c(C)c1C1=C(O)C2(CC=C(F)CC2)NC1=O (centres unmarked) [Example I-1-a-12] | 100% | 100% | 100% | – | – | effect in % (spider mites killed) ([5]; 500 g/ha): 100%
Cc1ccc(-c2ccc(Cl)cc2)cc1C1=C(O)C2(CCCCC2)NC1=O [V.2-b, 3-(4′-Chloro-4-methylbiphenyl-3-yl)-4-hydroxy-1-azaspiro[4.5]dec-3-en-2-one, reference compound] | – | – | – | 2.77 | – | fu [%] (rat) [11]: 0.71%; fu [%] (mouse) [6]: 2.81%; fu [%] (human) [7]: 0.36%
Cc1ccc(-c2ccc(Cl)cc2)c(C)c1C1=C(O)C2(CCC(F)(F)CC2)NC1=O [Example 1-5, 3-(4′-Chloro-2,4-dimethylbiphenyl-3-yl)-8,8-difluoro-4-hydroxy-1-azaspiro[4.5]dec-3-en-2-one] | – | – | 100% | – | 90% | nematicidal effect in % (formation of galls) [8]: 100%
Cc1cc(Cl)cc(C)c1C1=C(O)C2(CC=C(F)CC2)NC1=O (centres unmarked) [Example I-1-a-13] | 100% | – | 100% | – | 90% | –
Cc1cc(C)c(C2=C(O)C3(CCC(F)(F)CC3)OC2=O)c(C)c1 [Example I-2-a-4] | 100% | – | 100% | – | – | –
Cc1ccc(-c2ccc(Cl)c(F)c2)cc1C1=C(O)[C@]2(CC[C@H](C(F)(F)F)CC2)NC1=O [V.1-a, (5s,8s)-3-(4′-Chloro-3′-fluoro-4-methylbiphenyl-3-yl)-4-hydroxy-8-(trifluoromethyl)-1-azaspiro[4.5]dec-3-en-2-one] | – | – | – | 2.55 | – | Ratio of IC50s ACC2/ACC1 (respective measurement) [12]: 8.6
Cc1ccc(-c2ccc(Cl)cc2)cc1C1=C(O)[C@]2(CC[C@H](C(F)(F)F)CC2)NC1=O [V.2-a, (5s,8s)-3-(4′-Chloro-4-methylbiphenyl-3-yl)-4-hydroxy-8-(trifluoromethyl)-1-azaspiro[4.5]dec-3-en-2-one] | – | – | – | 2.23 | – | Ratio of IC50s ACC2/ACC1 (respective measurement) [12]: 8.4
Cc1cc(Br)cc(C)c1C1=C(O)C2(CCC(F)(F)CC2)NC1=O [Example I-1-a-5] | 100% | – | 100% | – | 100% | –
Cc1ccc(-c2ccc(F)cc2)c(C)c1C1=C(O)C2(CCC(F)(F)CC2)OC1=O [Example I-2-a-2] | 100% | 100% | 100% | – | – | effect in % (spider mites killed) ([5]; 500 g/ha): 100%
Cc1ccc(-c2ccc(Cl)c(F)c2)cc1C1=C(O)C2(CCCCC2)NC1=O [V.1-b, 3-(4′-Chloro-3′-fluoro-4-methylbiphenyl-3-yl)-4-hydroxy-1-azaspiro[4.5]dec-3-en-2-one] | – | – | – | 2.8 | – | –
O=C1NC2(CCC(F)(F)CC2)C(O)=C1c1cc(-c2ccc(Cl)cc2)ccc1Cl [Example 1-4, 3-(4,4′-Dichlorobiphenyl-3-yl)-8,8-difluoro-4-hydroxy-1-azaspiro[4.5]dec-3-en-2-one] | – | – | – | – | – | Ratio of IC50s ACC2/ACC1 (respective measurement) [12]: 34.0
CCc1cc(C)cc(C)c1C1=C(O)C2(CCC(F)(F)CC2)NC1=O [Example I-1-a-11] | – | – | – | – | 100% | –

— patent publication US8946124B2, “Substituted 3-(biphenyl-3-yl)-8,8-difluoro-4-hydroxy-1-azaspiro[4.5]dec-3-en-2-ones for therapy and halogen-substituted spirocyclic ketoenols” (Bayer Intellectual Property GmbH, priority 2011, dated 2015)
